Test results as given in PubChem BioAssay (NCI).
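1) Cells in 96-well plates. 2) Compound, 48 h, 5 concentrations. 3) Linear interpolation between surrounding doses. 4) Unreached endpoint = highest concentration. TGI marks complete inhibition of growth.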

Experiments:
Experiment in all cases: NCI anticancer screen, dose series, 48 h
[1] = test system: MDA-N
[2] = test system: CCRF-CEM leukemia
[3] = test system: UO-31 renal
[4] = test system: SF-539 CNS
[5] = test system: MDA-MB-231 breast
[6] = test system: SNB-75 CNS
[7] = test system: KM12 colon
[8] = test system: IGROV1 ovarian
[9] = test system: BT-549 breast
[10] = test system: SN12C renal
[11] = test system: U251 CNS

Q: For C[C@H]1COC2=C1C(=O)C(=O)c1c2ccc2c1CCCC2(C)C, which TGI [1] is on record?
A: 3.26 µM

Q: And the TGI [2]?
A: > 39.5 µM

Q: What about the TGI [3] of the same compound?
A: 14.3 µM

Q: And the TGI [4]?
A: 18.2 µM

Q: And the TGI [5]?
A: > 100 µM

Q: And the TGI [6]?
A: 3.81 µM

Q: What about the TGI [7] of the same compound?
A: 37 µM

Q: And the TGI [8]?
A: 29.2 µM

Q: What about the TGI [9] of the same compound?
A: 5.71 µM

Q: What about the TGI [10] of the same compound?
A: 21.1 µM

Q: And the TGI [11]?
A: 27.4 µM

Q: Which results are given for Oc1cc(Br)cc2cc(Cl)cnc12?
A: TGI [1]: > 100 µM; TGI [2]: 7.23 µM; TGI [3]: 17.4 µM; TGI [4]: > 100 µM; TGI [5]: > 100 µM; TGI [6]: > 90.3 µM; TGI [7]: > 42.7 µM; TGI [8]: 27.1 µM; TGI [9]: 47.6 µM; TGI [10]: 45.1 µM; TGI [11]: > 82.8 µM

Q: With CN1CCN(C2=CC(=O)c3c(O)ccc(O)c3C2=O)CC1 as the compound, how does the TGI [1] read?
A: 0.325 µM

Q: What about the TGI [2] of the same compound?
A: 3.03 µM

Q: What about the TGI [3] of the same compound?
A: 2.92 µM

Q: What about the TGI [4] of the same compound?
A: 2.96 µM

Q: And the TGI [5]?
A: 3.1 µM

Q: What about the TGI [6] of the same compound?
A: 2.97 µM

Q: What about the TGI [7] of the same compound?
A: 3.59 µM

Q: What about the TGI [8] of the same compound?
A: 3.06 µM

Q: And the TGI [9]?
A: 3.14 µM

Q: And the TGI [10]?
A: 2.99 µM

Q: What about the TGI [11] of the same compound?
A: 2.97 µM

Q: What does the source list for CCC(NC1=NCCO1)c1cccs1 (stereo not drawn)?
A: TGI [1]: 27.7 µM; TGI [2]: 65.4 µM; TGI [3]: 32.7 µM; TGI [4]: 29.8 µM; TGI [5]: 44.6 µM; TGI [6]: 16.9 µM; TGI [7]: 36 µM; TGI [8]: 39.3 µM; TGI [9]: 37.7 µM; TGI [11]: 26.3 µM

Q: With O=C1C(=Cc2ccc(Cl)c(Cl)c2)C([O-])=C([P+](c2ccccc2)(c2ccccc2)c2ccccc2)C([O-])=C1[P+](c1ccccc1)(c1ccccc1)c1ccccc1 as the compound, how does the TGI [1] read?
A: 3.77 µM

Q: And the TGI [2]?
A: 5.6 µM

Q: And the TGI [3]?
A: 8.89 µM

Q: And the TGI [4]?
A: 5.17 µM

Q: And the TGI [5]?
A: 8.78 µM

Q: And the TGI [6]?
A: 15.9 µM

Q: And the TGI [7]?
A: 4.66 µM

Q: What about the TGI [8] of the same compound?
A: 6.34 µM

Q: What about the TGI [9] of the same compound?
A: 5.19 µM

Q: And the TGI [10]?
A: 6.47 µM

Q: What about the TGI [11] of the same compound?
A: 6.29 µM

Q: Which results are given for [N-]=[N+]=Nc1c([N+](=O)[O-])c(=O)n2c3c(cccc13)CCC2?
A: TGI [1]: 27.9 µM; TGI [2]: 4.98 µM; TGI [3]: 28.4 µM; TGI [4]: 52.2 µM; TGI [5]: 25.9 µM; TGI [6]: 38.1 µM; TGI [7]: 34.8 µM; TGI [8]: 41 µM; TGI [9]: 32.7 µM; TGI [10]: 25.9 µM; TGI [11]: 34.7 µM

Q: OC1C[C@H](c2ccccc2)C2(C(O)c3ccccc3C2O)[C@@H](c2ccccc2)C1 (stereo partly drawn) was tested. Which TGI [1] did it give?
A: > 100 µM

Q: What about the TGI [2] of the same compound?
A: > 100 µM

Q: And the TGI [3]?
A: > 100 µM

Q: What about the TGI [4] of the same compound?
A: > 100 µM

Q: And the TGI [5]?
A: > 100 µM

Q: And the TGI [6]?
A: > 100 µM

Q: What about the TGI [7] of the same compound?
A: > 100 µM

Q: And the TGI [8]?
A: > 100 µM

Q: And the TGI [9]?
A: > 100 µM

Q: What about the TGI [10] of the same compound?
A: > 100 µM

Q: What about the TGI [11] of the same compound?
A: > 100 µM

Q: With CCN1CCC(O)(/C=C/c2ccc(C(C)C)cc2)C(C(=O)/C=C/c2ccc(C(C)C)cc2)C1 (stereo not drawn) as the compound, how does the TGI [1] read?
A: 5 µM

Q: What about the TGI [2] of the same compound?
A: 4.36 µM

Q: And the TGI [3]?
A: 7.88 µM

Q: What about the TGI [4] of the same compound?
A: 4.58 µM

Q: And the TGI [5]?
A: 3.82 µM

Q: What about the TGI [6] of the same compound?
A: 11.7 µM

Q: And the TGI [7]?
A: 4.87 µM

Q: And the TGI [8]?
A: 6.79 µM

Q: What about the TGI [9] of the same compound?
A: 16.2 µM

Q: What about the TGI [10] of the same compound?
A: 6.06 µM

Q: What about the TGI [11] of the same compound?
A: 7.32 µM

Q: O=C(O)Cn1cc([N+](=O)[O-])c(=O)c2ccccc21 was tested. Which TGI [1] did it give?
A: > 100 µM

Q: What about the TGI [2] of the same compound?
A: > 100 µM

Q: And the TGI [3]?
A: > 100 µM

Q: And the TGI [4]?
A: > 100 µM

Q: What about the TGI [5] of the same compound?
A: 32.9 µM

Q: And the TGI [6]?
A: > 100 µM

Q: What about the TGI [7] of the same compound?
A: > 100 µM

Q: And the TGI [8]?
A: > 100 µM

Q: What about the TGI [9] of the same compound?
A: > 100 µM

Q: And the TGI [10]?
A: > 100 µM

Q: And the TGI [11]?
A: > 100 µM

Q: What does the source list for CC(=O)OC1COC(Nc2nc(N)n(C)c(=O)c2N=O)C(OC(C)=O)C1OC(C)=O (stereo not drawn)?
A: TGI [1]: > 10 µM; TGI [2]: > 10 µM; TGI [4]: > 10 µM; TGI [5]: > 10 µM; TGI [6]: > 10 µM; TGI [7]: > 10 µM; TGI [8]: > 10 µM; TGI [9]: > 10 µM; TGI [10]: > 10 µM; TGI [11]: > 10 µM

Q: Which results are given for Cc1sc2nc3n(c(=O)c2c1C)N=CN(c1ccc(F)cc1)C3?
A: TGI [1]: > 100 µM; TGI [2]: > 100 µM; TGI [3]: > 100 µM; TGI [5]: > 100 µM; TGI [6]: > 100 µM; TGI [7]: > 100 µM; TGI [8]: > 100 µM; TGI [9]: > 100 µM; TGI [10]: > 100 µM; TGI [11]: > 100 µM

Q: Cc1cc(S(=O)(=O)/N=C(/NN)NNc2cccc(C(F)(F)F)n2)c(S)cc1Cl was tested. Which TGI [1] did it give?
A: 29.2 µM

Q: What about the TGI [2] of the same compound?
A: 63.6 µM

Q: And the TGI [3]?
A: 37.2 µM

Q: What about the TGI [4] of the same compound?
A: 43.6 µM

Q: What about the TGI [5] of the same compound?
A: > 100 µM

Q: And the TGI [6]?
A: 32 µM

Q: And the TGI [7]?
A: 37.2 µM

Q: And the TGI [9]?
A: 36.7 µM

Q: And the TGI [10]?
A: > 100 µM

Q: What about the TGI [11] of the same compound?
A: 33.6 µM

Q: With O=c1c2ccccc2nc(N/N=C/c2ccccc2O)n1-c1ccccc1 as the compound, how does the TGI [1] read?
A: > 100 µM

Q: What about the TGI [2] of the same compound?
A: > 100 µM

Q: And the TGI [3]?
A: > 100 µM

Q: What about the TGI [4] of the same compound?
A: > 100 µM

Q: What about the TGI [5] of the same compound?
A: > 100 µM

Q: What about the TGI [6] of the same compound?
A: > 100 µM

Q: What about the TGI [8] of the same compound?
A: > 100 µM

Q: And the TGI [9]?
A: > 100 µM

Q: What about the TGI [10] of the same compound?
A: > 100 µM

Q: What about the TGI [11] of the same compound?
A: > 100 µM

Q: With CC(=O)c1c2n(n(-c3ccccc3)c1=O)C(=O)c1nccnc1-2 as the compound, how does the TGI [1] read?
A: > 100 µM

Q: And the TGI [3]?
A: > 100 µM

Q: What about the TGI [4] of the same compound?
A: > 100 µM

Q: What about the TGI [5] of the same compound?
A: > 100 µM

Q: And the TGI [6]?
A: > 100 µM

Q: What about the TGI [7] of the same compound?
A: > 100 µM

Q: And the TGI [8]?
A: > 100 µM

Q: And the TGI [9]?
A: > 100 µM

Q: What about the TGI [10] of the same compound?
A: > 100 µM

Q: What about the TGI [11] of the same compound?
A: > 100 µM

Q: How did the TGI [1] turn out when C=CCn1c(-c2ccc([N+](=O)[O-])cc2)csc1=N was run?
A: > 100 µM

Q: What about the TGI [2] of the same compound?
A: 34.7 µM

Q: And the TGI [3]?
A: > 100 µM

Q: What about the TGI [5] of the same compound?
A: > 100 µM

Q: And the TGI [6]?
A: 95.6 µM

Q: What about the TGI [7] of the same compound?
A: > 100 µM

Q: And the TGI [8]?
A: > 100 µM

Q: What about the TGI [9] of the same compound?
A: > 100 µM

Q: What about the TGI [10] of the same compound?
A: > 100 µM

Q: And the TGI [11]?
A: > 100 µM

Q: For C[N+](C)(CCNC(=O)c1cccc2cc3ccccc3nc12)Cc1ccc([N+](=O)[O-])s1, which TGI [1] is on record?
A: > 25 µM

Q: What about the TGI [2] of the same compound?
A: > 25 µM

Q: And the TGI [3]?
A: > 25 µM

Q: And the TGI [5]?
A: > 25 µM

Q: And the TGI [6]?
A: > 25 µM

Q: What about the TGI [7] of the same compound?
A: > 25 µM

Q: What about the TGI [8] of the same compound?
A: > 25 µM

Q: What about the TGI [9] of the same compound?
A: > 25 µM

Q: What about the TGI [10] of the same compound?
A: > 25 µM

Q: What about the TGI [11] of the same compound?
A: > 25 µM
